Measured values taken from patent US6107313A, “Dopamine receptor antagonists” (CombiChem, Inc., priority 1998, dated 2000).

How the values were obtained:
[1] = biological target: T1, Dopamine, D2s (Human Recombinant) (Homo sapiens, UniProt P14416); assay: dopamine D2 receptor binding assay, [3H]spiperone, human recombinant (A9L cells); details: 1 h, N = 2, read-out: % Specific Binding; for activity at 10 µM: concentration 1.0E-5, average; for activity at 1 µM: concentration 1.0E-6, average; for activity at 0.1 µM: concentration 1.0E-7, average; for activity at 0.01 µM: concentration 1.0E-8, average; for activity at 0.001 µM: concentration 1.0E-9, average; for activity at 3 µM: concentration 3.0E-6, average; for activity at 0.3 µM: concentration 3.0E-7, average; for activity at 0.03 µM: concentration 3.0E-8, average; for activity at 0.003 µM: concentration 3.0E-9, average; for activity at 0.0003 µM: concentration 3.0E-10, average
T1 construct: expressed in transfected cells; host or cells: A9L cells (membranes)
T1 sequence (P14416 1-414 isoform P14416-2): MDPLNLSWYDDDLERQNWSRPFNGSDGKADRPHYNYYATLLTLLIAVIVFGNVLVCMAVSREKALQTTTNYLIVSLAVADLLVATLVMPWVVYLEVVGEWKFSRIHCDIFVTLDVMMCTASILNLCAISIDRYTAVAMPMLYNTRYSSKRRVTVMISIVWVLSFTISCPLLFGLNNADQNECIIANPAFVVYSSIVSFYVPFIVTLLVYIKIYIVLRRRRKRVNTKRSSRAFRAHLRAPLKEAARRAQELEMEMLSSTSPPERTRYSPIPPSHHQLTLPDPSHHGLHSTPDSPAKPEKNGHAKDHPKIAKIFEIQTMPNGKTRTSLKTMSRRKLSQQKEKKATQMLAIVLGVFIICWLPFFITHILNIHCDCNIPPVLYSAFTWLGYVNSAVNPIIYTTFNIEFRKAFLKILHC
Protocol: (§1) Following incubation, the membranes were rapidly filtered under vacuum through GF/B glass fiber filters (Packard). The filters were then washed several times with an ice-cold buffer using a Packard cell harvester.
(§2) Bound radioactivity was measured with a scintillation counter (Topcount, Packard) using a liquid scintillation cocktail (Microscint 0, Packard).
(§3) The compounds were tested in each assay at ten concentrations in duplicate to obtain competition curves.
(§4) In each experiment, the respective reference compound was simultaneously tested at eight concentrations in duplicate to obtain competition curves in order to validate this experiment.
(§5) The specific radioligand binding to the receptors is defined as the difference between total binding and nonspecific binding determined in the presence of an excess of unlabelled ligand (see section 2.1).
(§6) Results are expressed as a percent of control specific binding obtained in the presence of the test compounds.
(§7) These parameters were obtained by Hill equation curve fitting. The inhibition constants (Ki) were calculated from the Cheng Prusoff equation (Ki =IC50 /(1+L/KD), where L=concentration of radioligand in the assay, and KD=affinity of radioligand for the receptor).
(§8) Reactions were carried out in 50 mM TRIS-HCl (pH 7.4) containing 120 mM NaCl, 5 mM KCl, 5 mM MgCl2, 1mM EDTA for 60 minutes at 25 ° C. The reaction was terminated by rapid vacuum filtration onto glass fiber filters. Radioactivity trapped onto the filters was determined and compared to control values in order to ascertain any interactions of test compound(s) with the cloned dopamine D2 short binding site.

[2] = biological target: T2, Dopamine, D4.4 (Human Recombinant) (Homo sapiens, UniProt P21917); assay: dopamine D4.4 receptor binding assay, [3H]spiperone, human recombinant (CHO cells); details: 1 h, N = 2, read-out: % Specific Binding; for activity at 10 µM: concentration 1.0E-5, average; for activity at 1 µM: concentration 1.0E-6, average; for activity at 0.1 µM: concentration 1.0E-7, average; for activity at 0.01 µM: concentration 1.0E-8, average; for activity at 0.001 µM: concentration 1.0E-9, average; for activity at 3 µM: concentration 3.0E-6, average; for activity at 0.3 µM: concentration 3.0E-7, average; for activity at 0.03 µM: concentration 3.0E-8, average; for activity at 0.003 µM: concentration 3.0E-9, average; for activity at 0.0003 µM: concentration 3.0E-10, average
T2 construct: expressed in transfected cells; host or cells: CHO cells (membranes)
T2 sequence (P21917 1-419): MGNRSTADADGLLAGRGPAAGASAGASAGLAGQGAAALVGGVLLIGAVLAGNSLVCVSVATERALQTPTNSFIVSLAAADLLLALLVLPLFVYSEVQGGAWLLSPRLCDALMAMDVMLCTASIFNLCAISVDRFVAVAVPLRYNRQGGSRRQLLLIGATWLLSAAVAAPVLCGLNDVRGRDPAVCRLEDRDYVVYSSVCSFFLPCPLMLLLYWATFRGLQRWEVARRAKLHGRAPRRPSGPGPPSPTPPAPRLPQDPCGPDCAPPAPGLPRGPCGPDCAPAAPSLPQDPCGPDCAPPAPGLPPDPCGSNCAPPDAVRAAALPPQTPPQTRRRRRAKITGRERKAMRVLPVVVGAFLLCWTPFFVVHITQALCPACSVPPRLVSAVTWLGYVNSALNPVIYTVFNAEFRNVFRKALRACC
Protocol: [The source words this procedure for another target and reports this target under the same test.] as §1, §2, §3, §4, §5, §6, §7, §8

Row | activity at 10 µM [1] [%] | activity at 1 µM [1] [%] | activity at 0.1 µM [1] [%] | activity at 0.01 µM [1] [%] | activity at 0.001 µM [1] [%] | activity at 3 µM [1] [%] | activity at 0.3 µM [1] [%] | activity at 0.03 µM [1] [%] | activity at 0.003 µM [1] [%] | activity at 0.0003 µM [1] [%] | activity at 10 µM [2] [%] | activity at 1 µM [2] [%] | activity at 0.1 µM [2] [%] | activity at 0.01 µM [2] [%] | activity at 0.001 µM [2] [%] | activity at 3 µM [2] [%] | activity at 0.3 µM [2] [%] | activity at 0.03 µM [2] [%] | activity at 0.003 µM [2] [%] | activity at 0.0003 µM [2] [%] | SMILES
1 | 116 | 102 | 84.7 | 89.7 | 93.4 | 99.4 | 101 | 107 | 90.8 | 89.9 | 3.57 | 46.6 | 76.8 | 81 | 80.2 | 16.4 | 80.4 | 76.3 | 84.4 | 90.9 | Cc1ccc(-c2noc(C3CCN(Cc4ccc(Cl)c(Cl)c4)CC3)n2)cc1 [Compound 5a, 4-(3-p-tolyl-1,2,4-oxadiazol-5-yl)-N-(3,4-dichlorobenzyl) piperidine]
2 | 39.5 | 106 | 105 | 100 | 104 | 113 | 117 | 99.8 | 105 | 85.2 | 2.15 | 6.58 | 47.5 | 92.1 | 102 | 12.2 | 22.9 | 77.1 | 96.4 | 101 | COc1ccc(CN2CCC(c3nc(-c4ccccc4C)no3)CC2)cc1 [Compound 5d, 4-(3-o-tolyl-1,2,4-oxadiazol-5-yl)-N-(4-methoxybenzyl) piperidine]
3 | 24.6 | 91.3 | 112 | 103 | 104 | 61.9 | 116 | 104 | 97.3 | 116 | -3.8 | 0.44 | 22.8 | 53.6 | 76 | -0.19 | 4.28 | 29.7 | 73.1 | 82.3 | Clc1ccc(CN2CCC(c3nc(-c4cccs4)no3)CC2)cc1 [Compound 5b, 4-[3-(2-thienyl)-1,2,4-oxadiazol-5-yl]-N-(4-chlorobenzyl) piperidine]
4 | 33 | 101 | 87.7 | 88.3 | 94.8 | 102 | 94.6 | 84.9 | 108 | 98.5 | -7.32 | 1.74 | 29.2 | 81.9 | 107 | 4.6 | 4.79 | 60 | 95.2 | 109 | Clc1cccc(CN2CCC(c3nc(-c4cccs4)no3)CC2)c1 [Compound 5c, 4-[3-(2-thienyl)-1,2,4-oxadiazol-5-yl]-N-(3-chlorobenzyl) piperidine]
